The source of these data is patent US9045403B2 (Coyote Pharmaceuticals, Inc., priority 2012, dated 2015).

Experiment [1] has as its system Neuro2A cells. The experiment in a line: Neuro2A cells that extended neurites, with GGTI-298 (Example 18). The format is cell-based, mouse. The note with it: 0.1-1 μM, vehicle 0.0-0.20. The text has this: After differentiation was induced, cells that extended neurites were counted.
Experiment [2] relates to Murine neuro2A neuroblastoma cells. The experiment in a line: Neurite outgrowth of neuro2A cells inhibited with GGTI-298 (Example 30). It is filed as cell-based, mouse. The note with it: for Median Counts of cells with neurite outgrowth: CNS-102 vs CNS-103 experiment (no inhibition 60.3, PBS 18.5); for Relative %: relative to uninhibited count. How it is done: Differentiation was induced and cells incubated with geranylgeranyl transferase I inhibitor, GGTI-298. After 24 h digital images were taken and neurite outgrowth was quantified. The comparisons of the neuroprotective effect of these three compounds are shown below.
The estimated mean log10 counts, from five replicate wells for each treatment group were calculated by PROC GLM in SAS assuming a pooled estimate of variation.
The estimated mean log10 counts from five replicate wells for each treatment group were calculated by PROC GLM in SAS assuming a pooled estimate of variation.
Differences in mean log(counts) between treatments for each concentration were calculated using PROC GLM in SAS. The p-value given is for the comparison of the estimated difference to zero, the expected difference value for no treatment effect. The anti-log of the differences represent the estimated ratio of counts (relative effect on inhibition) and are tabulated below along with the lower and upper 95% confidence intervals.

For experiment [3], the system named is HSP70. The experiment in a line: HSP70 expression in Neuro2A cells by western blot. The note with it: for HSP70 western signal (absence of compounds = 1.00): 48 hours, then GGTI-298. It is filed as cell-based, mouse. How it is done:
Differentiation was induced and cells incubated with geranylgeranyl transferase I inhibitor, GGTI-298. Cells were harvested and lysates were prepared and analyzed by western blot for HSP70 and HSP90. Western signals in the absence of the compounds were normalized as 1.00.

The subject of experiment [4] is Sprague-Dawley rats injected with Kainic acid. The experiment in a line: Kainic acid induced neurodegeneration and seizure in rats (Example 21). The note with it: oral. The format is in vivo, rat. The text has this: Seizure behaviors were observed and scored (Ref. R. J. Racine, Modification of seizure activity by electrical stimulation: II. Motor seizure, Electroencephalogr. Clin. Neurophysiol. 32 (1972) 281-294. Modifications were made for the methods). Brain tissues of rats were sectioned on histology slides, and neurons in hippocampus tissues were stained by Nissl. Neurons damaged by Kainic acid and behavior scores were quantified.

In experiment [5] the test system is Rap1. The experiment in a line: Prenylation of Rap1 in Neuro2A cells with GGTI-298 (western blot). It is filed as cell-based, mouse. The conditions noted are these: 100 nM; percentage of control treatments (GGTI only). How it is done: Mouse neuroblastoma Neuro2A cells were cultured in DMEM supplemented with 10% FBS for 24 hrs. The cells were treated with 102GGA derivative compounds for 24 hrs first before GGTase inhibitor GGTI-298 was added to the culture medium for additional 24 hr incubation. […] Both un-prenylated and total Rap1 protein bands were quantified using Image J and normalized to their respective loading control GAPDH. The results for control and each compound treatment were calculated as the ratio of normalized un-prenylated Rap1 to total Rap1, and averaged from two biological repeats of one experiment. The final results were presented as a percentage of the control treatments (GGTI only) from the same batch experiment. The data shown in the chart were averaged from two repeats of one experiment and presented as the ratio of normalized un-prenylated Rap1 to total Rap1. Compound ID numbers in table refer to structures in Table 1 and Table 2.
Background: Immunoblotting shows a protein as a band on a membrane.

Experiment [6] relates to Mouse Neuro2A neuroblastoma cells. In words: Neuro2A cells with neurites after GGTI-298 (Example 16). It is filed as cell-based. The conditions noted are these: 10 μM, 48 hrs. As to the method: Mouse Neuro2A neuroblastoma cells were cultured in DMEM supplemented with 10% FBS for 24 hrs. […] Then differentiation was induced by retinoic acid in DMEM supplemented with 2% FBS. The cell culture was incubated with a Geranylgeranyl Transferase inhibitor, GGTI-298. […]

The subject of experiment [7] is Neuro2A cells treated with A-beta (O). The experiment in a line: Rescue of amyloid-beta oligomer induced cytotoxicity in Neuro 2A cells (CellTiter-Glo). It is filed as cell-based. The conditions noted are these: Mus musculus, N2a, compound 1 uM, A-beta (O) together with compound 48 hr, read-out: % viability vs. untreated. How it is done:
Preparation of amyloid-beta oligomer (A-beta (O)): Synthetic wild type A-beta (1-42) was purchased from American Peptide, and first dissolved with hexafluoroisopropanol (HFIP), then dried in the blowing tissue culture hood overnight to form a film in the eppendorf tube. The A-beta peptide film was first resuspended with DMSO to a concentration of 5 mM, further diluted with DMEM containing N2 supplement (Invitrogen) to achieve a concentration of 100 μM, and then sonicated in room temperature water bath for 10 minutes. The 100 μM peptide solution was then incubated at 4° C. for 24 hr and thoroughly vortexed before applied to cells.
Mouse neuroblastoma Neuro2A cells were plated in 96-well plates and cultured in DMEM supplemented with 10% FBS for 24 hr. […] At the end of incubation, cells were harvested and subjected to viability assay using CellTiter-Glo Luminescent Cell Viability Assay Kit (Promega). The data for each treatment was calculated as average of 4 replicates and normalized to that of A-beta (O) treated only. Compound ID numbers in table refer to structures in Table 1 and Table 2.
For orientation: Cellular ATP, detected with luciferase, serves as a proxy for viable cell number.

For experiment [8], the system named is HSP70. The experiment in a line: HSP70 levels in Neuro 2A cells by ELISA. The conditions noted are these: 10 uM compound for 48 hrs, then GGTI-298 24 hrs. The format is cell-based, mouse. As to the method: Mouse neuroblastoma 2a cells were cultured in DMEM with 10% FBS for 24 hrs. […] After 24 hrs cells were harvested and lysates were prepared and analyzed by ELISA for HSP70. Compound ID numbers in table refer to structures in Table 1 and Table 2.
In general terms: ELISA stands for enzyme-linked immunosorbent assay.

Where [9] appears, read: 10000 nM, CNS-102 vs CNS-103 experiment.

As to `CC(=O)CC/C=C(/C)CC/C=C(\C)CC/C=C(\C)CCC=C(C)C` [CNS-103], the “Mean of cell numbers (Arbitrary units)” value was 0.20-0.45 Arbitrary units in experiment [1] and 0.195 Arbitrary units in experiment [6]. The “Median Counts of cells with neurite outgrowth” value in experiment [2] (10 nM) was 26.7; in experiment [2] (100 nM) it was 29.3; in experiment [2] (1000 nM) it was 28.7; in experiment [2] (10000 nM), 16.3. The Relative % worked out at 44.3% in experiment [2] (10 nM, CNS-102 vs CNS-103 experiment); 48.6% in experiment [2] (100 nM, CNS-102 vs CNS-103 experiment); 47.6% in experiment [2] (1000 nM, CNS-102 vs CNS-103 experiment); 27% in experiment [2] (setting [9]). Besides, the Protection % in experiment [2] (setting [9]) was −5.3%. The maximum protection in experiment [2] (CNS-102 vs CNS-103 experiment, FIG. 4B) is listed as ~26%. The “HSP70 western signal (absence of compounds = 1.00)” value in experiment [3] (100 nM) is recorded as 1.00; in experiment [3] (10 μM) it was 0.99. Besides, the “induction of HSP70 expression (in words)” value in experiment [3] (Neuro2A cells, western blot) is “failed to induce expression of HSP70”. For the same compound, the “Mean of Hippocampus CA3 neurons damaged (Arbitrary units)” value worked out at 8.16 Arbitrary units in experiment [4] (12 mg/Kg rat) and 10.64 Arbitrary units in experiment [4] (25 mg/Kg rat). Further, in experiment [5], the “unprenylated/total RAP1 (%)” value is recorded as 96%.

A word on the viability: it is a read-out of living cells in per cent, often relative to untreated cells. In the case of `CC(C)=CCC/C(C)=C/CC/C(C)=C/CC/C(C)=C/CCC(C)=NO` [Compound 103], the viability at 1 µM in experiment [7] came out at 128%.

Take `CCC(=O)CC/C=C(\C)CC/C=C(\C)CCC=C(C)C` [Compound 102]: the viability at 1 µM in experiment [7] was 140%.

Turning to `CC(C)=CCC/C(C)=C/CC/C(C)=C/COC(=S)NC1CC1` [Compound 9d, Cyclopropyl 2E, 6E-farnesyl thiocarbamate], in experiment [8], the “HSP70 ELISA signal (absence of compound normalized as 1.00)” value turned out to be 0.95.
